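Grown in 96-well plates, cells were treated for 48 hours with each compound at five concentrations. Insufficient inhibition: endpoint recorded as highest concentration tested. GI50 marks 50% less growth. TGI: total growth inhibition.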
Columns and labels:
Assay in all cases: growth of human tumour cells (NCI), 48 h
[1] = system: SK-MEL-2 melanoma
[2] = system: SF-539 CNS
[3] = system: HCT-116 colon
[4] = system: HCT-15 colon
[5] = system: 786-0 renal
[6] = system: HOP-62 NSCLC
[7] = system: SR leukemia
[8] = system: OVCAR-5 ovarian
[9] = system: RXF 393 renal
[10] = system: MALME-3M melanoma
[11] = system: DU-145 prostate
[12] = system: T-47D breast
[13] = system: K-562 leukemia
[14] = system: SK-OV-3 ovarian
[15] = system: UACC-257 melanoma
[16] = system: A498 renal
[17] = system: SW-620 colon
[18] = system: CCRF-CEM leukemia
[19] = system: PC-3 prostate
[20] = system: MDA-MB-435
[21] = system: SNB-75 CNS
[22] = system: HOP-92 NSCLC
[23] = system: OVCAR-3 ovarian
[24] = system: A549 NSCLC
[25] = system: RPMI-8226 leukemia
[26] = system: OVCAR-8 ovarian
[27] = system: SK-MEL-28 melanoma
[28] = system: NCI/ADR-RES ovarian
[29] = system: SK-MEL-5 melanoma
[30] = system: COLO 205 colon
[31] = system: TK-10 renal
[32] = system: SN12C renal
[33] = system: EKVX NSCLC
[34] = system: UO-31 renal
[35] = system: M14 melanoma
[36] = system: CAKI-1 renal
[37] = system: MCF7 breast
[38] = system: HCC-2998 colon
[39] = system: ACHN renal
[40] = system: MOLT-4 leukemia
[41] = system: HS 578T breast
[42] = system: SNB-19 CNS
[43] = system: UACC-62 melanoma
[44] = system: MDA-MB-231 breast
[45] = system: NCI-H460 lung
[46] = system: BT-549 breast
[47] = system: NCI-H522 lung
[48] = system: KM12 colon
[49] = system: SF-268 CNS
[50] = system: HT29 colon
[51] = system: U251 CNS
[52] = system: NCI-H23 lung

In the case of `O=C(/C=C/c1cccs1)c1ccc(Cl)cc1Cl`, the GI50 [1] is reported as 17.5 µM, the TGI [1] is reported as 35 µM and the GI50 [2] is reported as 19.8 µM. For the same compound, the TGI [2] was 38.6 µM, the GI50 [3] was 14 µM and the TGI [3] was 30.8 µM. It also gave a GI50 [4] of 14.7 µM, a TGI [4] of 32.4 µM and a GI50 [5] of 16.6 µM. The TGI [5] was 33.9 µM, the GI50 [6] was 19.4 µM and the TGI [6] was 37.7 µM. For the same compound, the GI50 [7] was 15 µM, the TGI [7] was 77.3 µM and the GI50 [8] was 20.1 µM. The TGI [8] was 39 µM, the GI50 [9] was 19.4 µM and the TGI [9] was 38.4 µM. The GI50 [10] was 1.04 µM, the TGI [10] was 19.8 µM and the GI50 [11] was 20 µM. It also gave a TGI [11] of 43.7 µM, a GI50 [12] of 28.6 µM and a TGI [12] greater than 100 µM. It also gave a GI50 [13] of 19.1 µM, a TGI [13] of 56.4 µM and a GI50 [14] of 25.5 µM. The TGI [14] was 55.3 µM, the GI50 [15] was 16.6 µM and the TGI [15] was 31.9 µM. For the same compound, the GI50 [16] was 17.9 µM, the TGI [16] was 32.7 µM and the GI50 [17] was 18.8 µM. For the same compound, the TGI [17] was 37.1 µM, the GI50 [18] was 32.1 µM and the TGI [18] was 97.1 µM. For the same compound, the GI50 [19] was 33.2 µM, the TGI [19] was greater than 100 µM and the GI50 [20] was 17.7 µM. For the same compound, the TGI [20] was 35.2 µM, the GI50 [21] was 18.1 µM and the TGI [21] was 35.9 µM. It also gave a GI50 [22] of 23.8 µM, a TGI [22] of 61.4 µM and a GI50 [23] of 19 µM. For the same compound, the TGI [23] was 36.4 µM, the GI50 [24] was 17.3 µM and the TGI [24] was 36.4 µM. For the same compound, the GI50 [25] was 27.7 µM, the TGI [25] was greater than 100 µM and the GI50 [26] was 19.4 µM. It also gave a TGI [26] of 48.3 µM, a GI50 [27] of 22.4 µM and a TGI [27] of 52.7 µM. The GI50 [28] was 31.4 µM, the TGI [28] was greater than 100 µM and the GI50 [29] was 15 µM. The TGI [29] was 28.8 µM, the GI50 [30] was 27.1 µM and the TGI [30] was 88.9 µM. For the same compound, the GI50 [31] was 25.3 µM, the TGI [31] was 61.1 µM and the GI50 [32] was 16.4 µM. It also gave a TGI [32] of 31.2 µM, a GI50 [33] of 18.6 µM and a TGI [33] of 36.7 µM. The GI50 [34] was 18.5 µM, the TGI [34] was 34.2 µM and the GI50 [35] was 19.8 µM. For the same compound, the TGI [35] was 40.5 µM, the GI50 [36] was 20.9 µM and the TGI [36] was 43.1 µM. The GI50 [37] was 18.4 µM, the TGI [37] was 51.6 µM and the GI50 [38] was 19.2 µM. For the same compound, the TGI [38] was 34.8 µM, the GI50 [39] was 17.4 µM and the TGI [39] was 31.3 µM. For the same compound, the GI50 [40] was 18.8 µM, the TGI [40] was 51.9 µM and the GI50 [41] was 24.5 µM. For the same compound, the TGI [41] was 55.9 µM, the GI50 [42] was 24 µM and the TGI [42] was 64.2 µM. It also gave a GI50 [43] of 13.4 µM, a TGI [43] of 26.4 µM and a GI50 [44] of 14.3 µM. It also gave a TGI [44] of 28.1 µM, a GI50 [45] of 18 µM and a TGI [45] of 37.1 µM. The GI50 [46] was 19.3 µM, the TGI [46] was 39.9 µM and the GI50 [47] was 17.4 µM. It also gave a TGI [47] of 36.5 µM, a GI50 [48] of 19.1 µM and a TGI [48] of 40 µM. It also gave a GI50 [49] of 19.1 µM, a TGI [49] of 39 µM and a GI50 [50] of 28.1 µM. For the same compound, the TGI [50] was greater than 100 µM, the GI50 [51] was 14.6 µM and the TGI [51] was 28.1 µM. For the same compound, the GI50 [52] was 17.1 µM and the TGI [52] was 33.6 µM.

— PubChem BioAssay (NCI)
